Test results from ChEMBL document CHEMBL1221220, “Transport and signaling via the amino acid binding site of the yeast Gap1 amino acid transceptor” (Nat Chem Biol, 2009).
Changes are numbered by the printed parent chain. Activity calls are given as the source filed them.

Columns and labels:
Saccharomyces cerevisiae [1] = assay: Induction of yeast Gap1 L404 mutant-mediated amino acid uptake at 2 mM in presence of 10 mM MTSEA treated before compound addition
[2] = test system: T1, General amino-acid permease GAP1 (Saccharomyces cerevisiae), P19145 [N391C]; assay: Induction of yeast Gap1 N391C mutant-mediated trehalose activation at 2 mM in presence of 10 mM MTSEA treated before compound addition
T1 sequence (whole entry): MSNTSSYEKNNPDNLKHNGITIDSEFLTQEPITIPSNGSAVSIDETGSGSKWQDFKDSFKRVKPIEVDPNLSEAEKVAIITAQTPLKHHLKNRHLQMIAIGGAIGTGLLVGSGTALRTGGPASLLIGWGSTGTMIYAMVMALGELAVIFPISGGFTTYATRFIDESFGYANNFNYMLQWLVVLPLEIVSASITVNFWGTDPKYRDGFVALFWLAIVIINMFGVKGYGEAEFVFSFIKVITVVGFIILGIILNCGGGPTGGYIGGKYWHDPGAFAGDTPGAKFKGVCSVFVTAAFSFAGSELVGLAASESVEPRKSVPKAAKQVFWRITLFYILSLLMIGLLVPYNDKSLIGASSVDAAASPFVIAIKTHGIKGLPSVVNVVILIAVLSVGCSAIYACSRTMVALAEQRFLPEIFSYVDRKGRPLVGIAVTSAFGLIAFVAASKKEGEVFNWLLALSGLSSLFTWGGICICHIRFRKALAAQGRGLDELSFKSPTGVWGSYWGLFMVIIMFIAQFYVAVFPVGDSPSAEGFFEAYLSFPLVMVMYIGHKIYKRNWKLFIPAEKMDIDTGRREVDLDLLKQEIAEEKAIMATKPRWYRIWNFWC

[3] = test system: T2, General amino-acid permease GAP1 (Saccharomyces cerevisiae), P19145 [A403C]; assay: Activation of yeast Gap1 A403C mutant-mediated amino acid uptake at 10 mM
T2 sequence (whole entry): T1 sequence (whole entry) with C391N, A403C

[4] = test system: T3, General amino-acid permease GAP1 (Saccharomyces cerevisiae), P19145 [I382C]; assay: Activation of yeast Gap1 I382C mutant-mediated amino acid uptake at 10 mM
T3 sequence (whole entry): T1 sequence (whole entry) with I382C, C391N

[5] = test system: T4, General amino-acid permease GAP1 (Saccharomyces cerevisiae), P19145 [R399C]; assay: Induction of yeast Gap1 R399C mutant-mediated trehalose activation at 2 mM in presence of 10 mM MTSEA treated before compound addition
T4 sequence (whole entry): T1 sequence (whole entry) with C391N, R399C

Saccharomyces cerevisiae [6] = assay: Activation of yeast Gap1 L404 mutant-mediated amino acid uptake at 10 mM
[7] = test system: T2, General amino-acid permease GAP1 (Saccharomyces cerevisiae), P19145 [A403C]; assay: Induction of yeast Gap1 A403C mutant-mediated […] activation at 2 mM in presence of 10 mM MTSEA treated before compound addition
[8] = test system: General amino-acid permease GAP1 (Saccharomyces cerevisiae), P19145 [Y395C]; assay: Inhibition of yeast Gap1 Y395C mutant-mediated amino acid uptake at 10 mM
Chain of General amino-acid permease GAP1 (Saccharomyces cerevisiae), P19145 [Y395C] (P19145 whole entry Y395C): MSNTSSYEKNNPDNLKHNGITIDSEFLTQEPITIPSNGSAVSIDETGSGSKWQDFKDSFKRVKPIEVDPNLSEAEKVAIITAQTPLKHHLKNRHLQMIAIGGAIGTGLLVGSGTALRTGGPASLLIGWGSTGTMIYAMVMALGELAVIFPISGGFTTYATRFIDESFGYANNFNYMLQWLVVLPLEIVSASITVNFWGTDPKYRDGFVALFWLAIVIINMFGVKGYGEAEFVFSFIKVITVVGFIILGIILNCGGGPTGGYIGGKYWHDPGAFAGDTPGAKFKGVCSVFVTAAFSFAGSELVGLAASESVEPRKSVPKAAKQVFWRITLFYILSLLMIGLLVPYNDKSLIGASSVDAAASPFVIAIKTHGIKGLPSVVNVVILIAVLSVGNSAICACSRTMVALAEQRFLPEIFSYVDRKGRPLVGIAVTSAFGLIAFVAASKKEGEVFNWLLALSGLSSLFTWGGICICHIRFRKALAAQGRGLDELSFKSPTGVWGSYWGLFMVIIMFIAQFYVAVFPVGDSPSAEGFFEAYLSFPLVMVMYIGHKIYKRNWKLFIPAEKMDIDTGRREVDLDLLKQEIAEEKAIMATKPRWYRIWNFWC

[9] = test system: T2, General amino-acid permease GAP1 (Saccharomyces cerevisiae), P19145 [A403C]; assay: Induction of yeast Gap1 A403C mutant-mediated amino acid uptake at 2 mM in presence of 10 mM MTSEA treated before compound addition
[10] = test system: T1, General amino-acid permease GAP1 (Saccharomyces cerevisiae), P19145 [N391C]; assay: Activation of yeast Gap1 N391C mutant-mediated amino acid uptake at 10 mM

NC(=O)NCCC[C@H](N)C(=O)O
active: Activity (Saccharomyces cerevisiae [1]) | inhibition [2] | inhibition [5] | inhibition [7] | inhibition [8] | Activity [9]
inactive: Activity [3] | Activity [4] | Activity (Saccharomyces cerevisiae [6]) | Activity [10]
